Reference: patent US20080293725A1, “Prognostic Molecular Markers” (priority 2004, published 2008)
“And” between values parts separate entries of the source, which are not always exact repeats. Equal entries are not always repeated.

Tests used:
sarcoma patients = test: Clinical outcome of sarcoma patients treated with ET-743, matched with BRCA1, ERCC1 and XPD mRNA expression in tumor samples; type: in vivo, human; design: PFS6 rate (progression free survival higher than 6 months) / patients achieving progression free survival >=6 months (PFS6) / overall progression free survival at 6 months (Kaplan-Meier) / median survival at 12 months: concentration or dose not given beside the values
Method: In this study, 61 paraffin embedded tumoral samples from sarcoma patients before the treatment with any chemotherapy agent have been evaluated.
The majority of patients were treated before with one or several chemotherapy agents and later they followed a treatment with ET-743. The dosage of intravenous infusion ET-743 given to the different patients was within the range of 1.650-1.0 mg/m2; the schedules were 24 hours or 3 hour IV infusion with a three week interval between cycles; and the number of cycles ranged from 1 up to 25 cycles in some patients.
The clinical data from the patients was collected in the clinical data collection form and matched with the molecular data after completion of the mRNA expression levels determination (Table 1).
We examined XPD, ERCC1 and/or BRCA1 gene expression in formalin-fixed, paraffin-embedded tumor specimens from the 61 patients as previously described (Specht K. et al. Am J Pathol, 2001, 158, 419-429 and Krafft A E. et al. Mol Diagn. 1997, 3, 217-230). After standard tissue sample deparaffinisation using xylene and alcohols, samples were lysed in a tris-chloride, EDTA, sodium dodecyl sulphate (SDS) and proteinase K containing buffer. RNA was then extracted with phenol-chloroform-isoamyl alcohol followed by precipitation with isopropanol in the presence of glycogen and sodium acetate. RNA was resuspended in RNA storage solution (Ambion Inc; Austin Tex., USA) and treated with DNAse I to avoid DNA contamination. cDNA was synthesized using M-MLV retrotranscriptase enzyme. Template cDNA was added to Taqman Universal Master Mix (AB; Applied Biosystems, Foster City, Calif., USA) in a 20-μl reaction with specific primers and probe for each gene. The primer and probe sets were designed using Primer Express 2.0 Software (AB). Quantification of gene expression was performed using the ABI Prism 7900HT Sequence Detection System (AB). The primers and 5′ labeled fluorescent reporter dye (6FAM) probe were as follows: β-actin: forward 5′ TGA GCG CGG CTA CAG CTT 3′, reverse 5′ TCCTTAATGTCACGCACGATTT 3′, probe 5′ ACC ACC ACG GCC GAG CGG 3′; BRCA1: forward 5′ GGCTATCCTCTCAGAGTGACATTTTA 3′, reverse 5′ GCTTTATCAGGTTATGTTGCATGGT 3′, probe 5′ CCA CTC AGC AGA GGG 3′; ERCC1: forward 5′ GGGAATTTGGCGACGTAATTC 3′, reverse 5′ GCG GAG GCT GAG GAA CAG 3′, probe 5′CACAGGTGCTCTGGCCCAGCACATA 3′; XPD: forward 5′ GCTCCCGCAAAAACTTGTGT 3′, reverse 5′ CAT CGA CGT CCT TCC CAA A 3′, probe 5′ ACCCTGAGGTGACACCCCTGC 3′.
Relative gene expression quantification was calculated according to the comparative Ct method using β-actin as an endogenous control and commercial RNA controls (Stratagene, La Jolla, Calif.) as calibrators. Final results, were determined as follows: 2^−(^Δ^Ct sample−^Δ^Ct calibrator), where ΔCT values of the calibrator and sample are determined by subtracting the […]. In all experiments, only triplicates with a standard deviation (SD) of the Ct value <0.20 were accepted. In addition, for each sample analyzed, a retrotranscriptase minus control was run in the same plate to assure lack of genomic DNA contamination.
SAS v8.2 (statistical software) was used for all the statistical analysis. The statistical techniques for univariate, bivariate and multivariate variables were chosen, according with the nature of variables that will be analysed, i.e. when the dependent variable is a temporal variable with censor status the Cox regression would be applied, when correlation between variables will be computed the Pearson and/or Spearman measures would be used. P-values below 0.05 will be considered statistically significant in all tests, when appropriate 95% confidence intervals will be presented too.
A total of 61 paraffin embedded tumor samples were evaluated. […] These samples came from sarcoma patients before being treated with a chemotherapy agent.

[1] = tested on: HCC1937 breast cancer cell line; details: wild-type BRCA1 reconstituted vs BRCA1-negative HCC1937; cited from earlier work
[2] = BRCA1 mRNA <1.97 (low expression)
[3] = BRCA1 mRNA >=1.97 (high expression)
[4] = ERCC1 mRNA <5.86 (low expression)
[5] = ERCC1 mRNA >=5.86 (high expression)
[6] = Kaplan-Meier FIG. 2A, high BRCA1 expressers
[7] = Kaplan-Meier FIG. 2A, high BRCA1 expression
[8] = Kaplan-Meier FIG. 2A, low BRCA1 expression
[9] = Kaplan-Meier FIG. 2B, high ERCC1 expression
[10] = Kaplan-Meier FIG. 2B, low ERCC1 expression
[11] = Kaplan-Meier FIG. 2C (XPD), high expression
[12] = Kaplan-Meier FIG. 2C (XPD), low expression
[13] = XPD mRNA <1.99 (low expression)
[14] = XPD mRNA >=1.99 (high expression)

SMILES: COc1cc2c(cc1O)CCN[C@]21CS[C@@H]2c3c(OC(C)=O)c(C)c4c(c3[C@H](COC1=O)N1[C@@H]2[C@H]2c3c(cc(C)c(OC)c3O)C[C@@H]([C@@H]1O)N2C)OCO4 [ET-743, ecteinascidin 743]
- increase in objective response, low BRCA1 subpopulation vs full cohort (sarcoma patients; 16% to 21%): 1.3 fold
- increase in PFS6 rate, low BRCA1 subpopulation vs full cohort (sarcoma patients; 24% to 38%): 1.6 fold
- overall response rate (RR), PR + Minor Responses (sarcoma patients; 55 evaluable patients): 16%
- overall response rate (RR), only Partial Responses (sarcoma patients; 55 evaluable patients): 15%
- patients achieving progression free survival >=6 months (PFS6) (sarcoma patients; 55 evaluable patients, (8 PR+1 MR+6 SD)/55): 27%
- PD (number of patients) (sarcoma patients; BRCA1 cohort, Total): 30
- PFS <6 (number of patients) (sarcoma patients; BRCA1 cohort, Total): 38
- PFS >=6 (number of patients) (sarcoma patients; BRCA1 cohort, Total): 12
- PR + MR (number of patients) (sarcoma patients; BRCA1 cohort, Total): 8
- PD (number of patients) (sarcoma patients; BRCA1 mRNA <1.97): 12
- PFS <6 (number of patients) (sarcoma patients; BRCA1 mRNA <1.97): 16
- PFS >=6 (number of patients) (sarcoma patients; BRCA1 mRNA <1.97): 9
- PR + MR (number of patients) (sarcoma patients; BRCA1 mRNA <1.97): 5
- objective response (PR+MR) (sarcoma patients; [2]): 21%
- patients reaching PFS6 (PFS >=6 months) (sarcoma patients; [2]): 38% and 36%
- PD (number of patients) (sarcoma patients; BRCA1 mRNA >=1.97): 18
- PFS <6 (number of patients) (sarcoma patients; BRCA1 mRNA >=1.97): 22
- PFS >=6 (number of patients) (sarcoma patients; BRCA1 mRNA >=1.97): 3
- PR + MR (number of patients) (sarcoma patients; BRCA1 mRNA >=1.97): 3
- objective response (PR+MR) (sarcoma patients; [3]): 11%
- patients reaching PFS6 (PFS >=6 months) (sarcoma patients; [3]): 12%
- PD (number of patients) (sarcoma patients; ERCC1 cohort, Total): 22
- PFS <6 (number of patients) (sarcoma patients; ERCC1 cohort, Total): 29
- PR + MR (number of patients) (sarcoma patients; ERCC1 cohort, Total): 6
- PD (number of patients) (sarcoma patients; ERCC1 mRNA <5.86): 12
- PFS <6 (number of patients) (sarcoma patients; ERCC1 mRNA <5.86): 16
- PFS >=6 (number of patients) (sarcoma patients; ERCC1 mRNA <5.86): 3
- PR + MR (number of patients) (sarcoma patients; ERCC1 mRNA <5.86): 2
- objective response (PR+MR) (sarcoma patients; [4]): 11%
- patients reaching PFS6 (PFS >=6 months) (sarcoma patients; [4]): 16%
- PD (number of patients) (sarcoma patients; ERCC1 mRNA >=5.86): 10
- PFS <6 (number of patients) (sarcoma patients; ERCC1 mRNA >=5.86): 13
- PFS >=6 (number of patients) (sarcoma patients; ERCC1 mRNA >=5.86): 6
- PR + MR (number of patients) (sarcoma patients; ERCC1 mRNA >=5.86): 4
- objective response (PR+MR) (sarcoma patients; [5]): 21%
- patients reaching PFS6 (PFS >=6 months) (sarcoma patients; [5]): 32%
- PFS (median) (sarcoma patients; [6]): 1.5 months
- median survival (sarcoma patients; [6]): 5.4 months
- median survival at 12 months (sarcoma patients; [7]): 35.71%
- percentage of patients with PFS6 (sarcoma patients; [7]): 11.54%
- PFS (median) (sarcoma patients; [8]): 2.3 months
- median survival (sarcoma patients; [8]): 11.7 months
- median survival at 12 months (sarcoma patients; [8]): 42.23%
- percentage of patients with PFS6 (sarcoma patients; [8]): 41.67%
- median survival (sarcoma patients; Kaplan-Meier FIG. 2B, high ERCC1 expressers): 19.4 months
- PFS6 (sarcoma patients; [9]): 31.58%
- median PFS (sarcoma patients; [9]): 2.2 months
- PFS6 (sarcoma patients; [10]): 21.05%
- median PFS (sarcoma patients; [10]): 1.4 months
- median survival (sarcoma patients; [10]): 16.8 months
- PFS6 (sarcoma patients; [11]): 30%
- median PFS (sarcoma patients; [11]): 2.0 months
- median survival (sarcoma patients; [11]): 19.4 months
- median survival (sarcoma patients; Kaplan-Meier FIG. 2C (XPD), low expressers): 16.8 months
- PFS6 (sarcoma patients; [12]): 17.65%
- median PFS (sarcoma patients; [12]): 1.2 months
- PD (number of patients) (sarcoma patients; XPD cohort, Total): 22
- PFS <6 (number of patients) (sarcoma patients; XPD cohort, Total): 29
- PFS >=6 (number of patients) (sarcoma patients; XPD cohort, Total): 8
- PR + MR (number of patients) (sarcoma patients; XPD cohort, Total): 5
- PD (number of patients) (sarcoma patients; XPD mRNA <1.99): 11
- PFS <6 (number of patients) (sarcoma patients; XPD mRNA <1.99): 14
- PFS >=6 (number of patients) (sarcoma patients; XPD mRNA <1.99): 3
- PR + MR (number of patients) (sarcoma patients; XPD mRNA <1.99): 2
- objective response (PR+MR) (sarcoma patients; [13]): 12%
- patients reaching PFS6 (PFS >=6 months) (sarcoma patients; [13]): 18%
- PD (number of patients) (sarcoma patients; XPD mRNA >=1.99): 11
- PFS <6 (number of patients) (sarcoma patients; XPD mRNA >=1.99): 15
- PFS >=6 (number of patients) (sarcoma patients; XPD mRNA >=1.99): 5
- PR + MR (number of patients) (sarcoma patients; XPD mRNA >=1.99): 3
- objective response (PR+MR) (sarcoma patients; [14]): 15%
- patients reaching PFS6 (PFS >=6 months) (sarcoma patients; [14]): 25%
- median duration of the response (PR+MR) (sarcoma patients; all patients): 13.6 months
- range of duration of the response (PR+MR) (sarcoma patients; all patients): 44.1 to 3.8 months
- range of survival (sarcoma patients; all patients): 0.1-66.9 months
- median survival (sarcoma patients; all patients, 14 patients still censored): 7.7 months
- median survival (Kaplan-Meier) (sarcoma patients; all patients, FIG. 1): 10.2 months
- overall progression free survival at 6 months (Kaplan-Meier) (sarcoma patients; all patients, FIG. 1): 27.65%
- objective response (PR+MR) (sarcoma patients; full cohort with BRCA1 data (8/51)): 16%
- PFS6 rate (progression free survival higher than 6 months) (sarcoma patients; full cohort with BRCA1 data (12/50)): 24%

SMILES: N.N.[Cl][Pt][Cl] [cisplatin]
- increase in resistance [1]: 20 fold
